The values below come from ChEMBL document CHEMBL4024786, “In Silico Fragment-Based Design Identifies Subfamily B1 Metallo-β-lactamase Inhibitors” (J Med Chem, 2018).

Structures are written as SMILES. pIC50, pKd: −log10 of the molar value. The source made the active and inactive calls. No cut-off for these calls is given here.

Data set [1] can be described thus: Inhibition of recombinant bacterial VIM-2 expressed in Escherichia coli BL21 (DE3) cells using FC4 as substrate preincubated for 10 mins prior to substrate addition in presence of Triton X-100 by fluorescence-based assay. Set-up: species or system Bacteria.
Data set [2] concerns Escherichia coli str. K-12 substr. MG1655. The experiment in a line: Inhibition of NDM-1 in Escherichia coli MG1655 assessed as potentiation of meropenem induced antibacterial activity by measuring meropenem MIC at 100 ug/ml after 18 to 24 hrs by broth microdilution method (reference value: >128 ug/ml). (In general: Dilution methods test growth across graded concentrations, often in twofold steps.)

Data set [3] concerns Liver. As to the kind of experiment: Drug metabolism in human liver microsomes. Type of data set: ADME, microsome. For orientation: Liver microsomes are vesicles of endoplasmic reticulum, rich in cytochrome P450 enzymes.
Data set [4] deals with Metallo-beta-lactamase type 2 (Klebsiella pneumoniae) (UniProt C7C422). The experiment in a line: Inhibition of NDM-1 in Klebsiella pneumoniae ATCC 5055 assessed as potentiation of meropenem induced antibacterial activity by measuring meropenem MIC at 100 ug/ml after 18 to 24 hrs by broth microdilution method (reference value: >128 ug/ml).
Data set [5] is described as follows: Inhibition of recombinant bacterial IMP-1 expressed in Escherichia coli BL21 (DE3) cells using FC4 as substrate preincubated for 10 mins prior to substrate addition in presence of Triton X-100 by fluorescence-based assay. More on the design: species or system Bacteria.
A short description of data set [6]: Inhibition of recombinant bacterial NDM-1 expressed in Escherichia coli BL21 (DE3) cells using imipenem as substrate in presence of Triton X-100 by spectrophotometric analysis. Set-up: species or system Bacteria.
Data set [7] can be described thus: Aqueous solubility of the compound in phosphate buffer at pH 7.0. It counts as physicochemical.
For data set [8], the target named is T1, 5' exonuclease Apollo (Homo sapiens, UniProt Q9H816).
T1 sequence (Q9H816 whole entry): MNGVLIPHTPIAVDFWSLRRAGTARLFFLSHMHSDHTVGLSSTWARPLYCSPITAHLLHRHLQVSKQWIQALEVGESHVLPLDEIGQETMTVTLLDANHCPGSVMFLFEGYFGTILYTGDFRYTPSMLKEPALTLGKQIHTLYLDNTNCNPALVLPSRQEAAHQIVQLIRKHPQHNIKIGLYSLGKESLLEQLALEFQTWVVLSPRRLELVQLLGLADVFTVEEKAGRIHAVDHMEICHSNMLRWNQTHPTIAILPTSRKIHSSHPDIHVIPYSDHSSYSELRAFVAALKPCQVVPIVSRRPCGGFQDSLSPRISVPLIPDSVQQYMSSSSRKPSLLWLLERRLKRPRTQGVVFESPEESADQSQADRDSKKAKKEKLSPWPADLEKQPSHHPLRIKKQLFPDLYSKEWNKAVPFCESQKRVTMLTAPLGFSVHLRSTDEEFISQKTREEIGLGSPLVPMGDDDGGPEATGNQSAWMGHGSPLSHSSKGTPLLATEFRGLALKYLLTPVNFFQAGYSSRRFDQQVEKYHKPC
The experiment in a line: Inhibition of human DCLRE1B.

Data set [9] deals with Bacteria. As to the kind of experiment: Binding affinity to recombinant bacterial VIM-2 expressed in Escherichia coli BL21 (DE3) cells at 50 uM in presence of 4-(2,3-dichlorophenyl)-2-(sulfonylmethyl)benzoic acid by NMR method.
Data set [10] in a line: Inhibition of recombinant bacterial Bc2 expressed in Escherichia coli BL21 (DE3) cells using FC5 as substrate preincubated for 10 mins prior to substrate addition by fluorescence-based assay. Set-up: species or system Bacteria.
A short description of data set [11]: Inhibition of recombinant bacterial SPM-1 expressed in Escherichia coli BL21 (DE3) cells using FC5 as substrate preincubated for 10 mins prior to substrate addition by fluorescence-based assay. Set-up: species or system Bacteria.
In data set [12] the test system is Pseudomonas aeruginosa PAO1. As to the kind of experiment: Inhibition of recombinant Psedomonas aeruginosa PAO1 N-terminal His-tagged AmpC expressed in Escherichia coli BL21 (DE3) cells using FC5 as substrate preincubated up to 360 mins prior to substrate addition in presence or absence of Triton X-100 by fluorescence-based assay.
The target of data set [13] is Beta-lactamase TEM (Bacteria, UniProt P62593). The experiment in a line: Inhibition of recombinant N-terminal His-tagged bacterial Escherichia coli TEM-1 (24 to 286 residues) expressed in Escherichia coli BL21 (DE3) cells using FC5 as substrate preincubated up to 360 mins prior to substrate addition by fluorescence-based assay.
The nature of data set [14]: Binding affinity to recombinant bacterial VIM-2 expressed in Escherichia coli BL21 (DE3) cells by NMR method. More on the design: species or system Bacteria.
Data set [15] concerns the target Beta-lactamase OXA-10 (Pseudomonas aeruginosa, UniProt P14489). As to the kind of experiment: Inhibition of recombinant Pseudomonas aeruginosa OXA-10 expressed in Escherichia coli BL21 (DE3) cells using FC5 as substrate preincubated up to 360 mins prior to substrate addition by fluorescence-based assay.

Sequence of Metallo-beta-lactamase type 2 (Klebsiella pneumoniae) (C7C422 whole entry): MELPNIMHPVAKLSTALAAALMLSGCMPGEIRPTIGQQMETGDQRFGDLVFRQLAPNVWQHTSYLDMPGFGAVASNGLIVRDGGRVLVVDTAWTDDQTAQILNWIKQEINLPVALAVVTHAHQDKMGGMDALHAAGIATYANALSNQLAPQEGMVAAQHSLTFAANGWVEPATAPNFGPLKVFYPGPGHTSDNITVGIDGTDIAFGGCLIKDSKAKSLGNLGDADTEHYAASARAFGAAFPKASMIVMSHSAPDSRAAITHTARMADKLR
Sequence of Beta-lactamase TEM (P62593 whole entry, the tested form may be a part): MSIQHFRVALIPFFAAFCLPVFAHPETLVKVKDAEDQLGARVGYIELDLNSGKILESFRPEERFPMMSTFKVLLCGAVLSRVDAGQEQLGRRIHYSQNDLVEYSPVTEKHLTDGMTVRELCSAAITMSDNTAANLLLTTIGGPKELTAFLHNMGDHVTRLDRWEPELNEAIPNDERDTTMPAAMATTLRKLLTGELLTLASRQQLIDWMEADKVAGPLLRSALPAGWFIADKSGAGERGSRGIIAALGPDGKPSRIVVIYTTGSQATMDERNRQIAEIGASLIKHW
Sequence of Beta-lactamase OXA-10 (P14489 whole entry): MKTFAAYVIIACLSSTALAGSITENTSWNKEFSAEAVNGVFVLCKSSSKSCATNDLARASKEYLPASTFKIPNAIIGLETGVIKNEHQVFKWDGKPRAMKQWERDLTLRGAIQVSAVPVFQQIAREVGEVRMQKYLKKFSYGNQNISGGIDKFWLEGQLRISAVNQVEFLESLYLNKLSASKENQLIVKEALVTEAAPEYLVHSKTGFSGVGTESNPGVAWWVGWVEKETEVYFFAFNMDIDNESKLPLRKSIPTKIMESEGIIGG

Usually pIC50 stands for −log10 of the IC50, conventionally taken in molar units. As to `O=C1SCc2cc(-c3ccccc3)ccc21`, in data set [1], the pIC50 was under 4.00.

On to `O=C(O)c1ccc(-c2ccccc2)cc1CS`, for which the MIC was determined as 16 µg/mL in data set [2] and 32 µg/mL in data set [4]. Moreover, the Drug metabolism result in [3] was “Metabolite_Detected”. Further, the pIC50 is 6.64 in data set [5], 6.64 in [1], 5.25 in [6] and 3.83 in [8]. In addition, in [7], the solubility result is “Soluble”.

For the compound `O=C(O)c1ccc(-c2cc(C(F)(F)F)cc(C(F)(F)F)c2)cc1CS`, in data set [9], the result was inactive. Further, the MIC in data set [2] and in [4] was over 128 µg/mL each time. In addition, the pIC50 in data set [5] is 5.76; in [1], 6.35; in [6] it was 4.36.

On to `O=C(O)c1ccc(-c2ccc(Cl)cc2)cc1CS`, for which the pIC50 in data set [10] is 5.11 to 6.11; in data set [5] it was 7.22; in [1], 7.00; in data set [6], 6.38; in data set [11], 5.11 to 6.11.

With `O=C(O)c1ccc(-c2cccc(F)c2)cc1CS`, the pIC50 in [10] was 5.11 to 6.11; in data set [5] it was 6.41; in [1], 6.70; in [6], 6.23; in data set [11], 5.11 to 6.11; in data set [8] it was 3.73.

For `CCOc1cccc(-c2ccc(C(=O)O)c(CS)c2)c1`, the values for the MIC in [2] and in data set [4] were 64 µg/mL and 16 µg/mL, respectively. In addition, the negative-log IC50 (pIC50) in [5] was 6.49; in data set [1] it was 6.74; in data set [6], 5.12.

Take `O=C(O)Cc1ccccc1S`: the pIC50 in data set [1] was under 4.00.

Take `O=C(O)c1ccc(-c2ccco2)cc1CS`: the MIC was determined as 32 µg/mL in data set [2] and 64 µg/mL in data set [4]. Besides, the figures for the pIC50 in data set [5], in data set [1] and in data set [6] were 6.41, 6.44 and 4.99, respectively.

As to `O=C(O)c1ccc(-c2ccccc2Cl)cc1CS`, the pIC50 was 5.11 to 6.11 in [10]; 6.52 in data set [5]; 6.74 in data set [1]; 5.55 in data set [6]; 5.11 to 6.11 in [11]. For the same compound, the inhibition entry in [12] is “Active”.

`O=C(O)c1ccc(-c2ccsc2)cc1CS`: the figures for the MIC in [2] and in data set [4] were 16 µg/mL and 8 µg/mL, respectively. Moreover, the negative-log IC50 (pIC50) was 6.74 in data set [5], 6.77 in data set [1] and 5.17 in [6].

As to `O=C(O)c1ccc(-c2ccc3ccccc3c2)cc1CS`, the MIC in data set [2] and in data set [4] was 32 µg/mL each time. Also, the pIC50 in data set [5] was 6.66; in data set [1] it was 7.15; in data set [6], 5.62.

Regarding `O=C(O)c1ccc(-c2ccc(F)cc2)cc1CS`, the pIC50 in data set [10] is 5.11 to 6.11; in data set [5] it was 6.52; in data set [1] it was 6.64; in data set [6], 6.15; in data set [13], 4.48; in data set [11], 5.11 to 6.11.

On to `O=C(O)c1ccc(-c2cccc(Cl)c2)cc1CS`, for which the negative logarithm of the IC50 (pIC50) in [10] was 5.11 to 6.11; in data set [5], 6.85; in [1], 7.15; in data set [6] it was 6.51; in data set [11] it was 5.11 to 6.11; in [8], 3.57.

For the compound `O=C(O)c1ccc(-c2ccccc2C(F)(F)F)cc1CS`, the pIC50 was 6.32 in [5], 6.82 in data set [1] and 5.05 in data set [6].

`O=C(O)c1ccc(Br)cc1CS`: the MIC in data set [2] came to 32 µg/mL; in [4] it was 64 µg/mL. In addition, the values for the negative logarithm of the IC50 (pIC50) in data set [5], in data set [1] and in [6] were 6.10, 6.77 and under 4.00, respectively.

Broadly, the pKd is −log10 of the Kd, conventionally taken in molar units. Turning to `O=C(O)c1ccc(-c2cccc(Cl)c2Cl)cc1CS`, the negative logarithm of the Kd (pKd) in data set [14] is over 6.00. Besides, the pIC50 was 6.43 in [5]; 7.40 in [1]; 5.94 in data set [6]; 4.43 in data set [15]; 5.26 in data set [13]. Also, the inhibition result in data set [12] was “Active”.

Regarding `CCc1ccc(-c2ccc(C(=O)O)c(CS)c2)cc1`, the MIC in data set [2] was found to be 32 µg/mL; in data set [4], 64 µg/mL. Further, the pIC50 in data set [5] was 7.30; in data set [1], 7.00; in data set [6], 6.24.
